Measurements as given in patent publication US11492348B2, “Tri-substituted aryl and heteroaryl derivatives as modulators of PI3-kinase and autophagy pathways” (Neuropore Therapies, Inc., priority 2018, dated 2022).

What follows are compounds tested against PI3Kα (Homo sapiens (Human), UniProt P42336) (assay: Inhibition of PI3Kα (ADP-Glo kinase activity assay, ATP to ADP conversion)). Conditions: 25 μM PIP2:PS, 60 μM ATP, 30 min reaction, luminescence.
Type: biochemical
Description: Quantification of ATP to ADP conversion as a measure of PI3Kα activity. Active PI3Kα (Life Technologies), in the presence or absence of PI3Kα inhibitor, was reacted with PIP2:PS (Life Technologies), a substrate specifically optimized for use with Class I PI3 kinases, and ultrapure ATP (Promega). The conversion of ATP to ADP by PI3Kα was measured as luminescence signal via Promega ADP-Glo kinase activity assay. Assay was validated using published PI3Kα inhibitors LY294002, PI-103, BYL719, GDC0198 and also DMSO vehicle control.
Compounds were prepared at 100× final concentration as a 12-point, 1:3 serial-dilution in DMSO series, with DMSO control as 12th point. Compound was then diluted in (25 mM HEPES pH 7.5, 1 mM EGTA, 0.3% CHAPS) prior to addition to PI3Kα. Active PI3Kα diluted to 0.24 ng/μL (1.1 nM) in (50 mM HEPES pH 7.5, 6 mM MgCl2, 1 mM EGTA, 200 mM NaCl, 0.03% CHAPS, 8 mM DTT) was incubated with compound for 0 hr and 3 hr prior to the start of the reaction. 25 μM PIP2:PS and 60 μM ATP were diluted from stock in (25 mM HEPES pH 7.5, 1 mM EGTA, 0.3% CHAPS) and added to initiate the PI3Kα reaction. Reaction time was 30 minutes. ATP to ADP conversion was measured in Luminescence Counts on DTX880 Plate Reader (Beckman Coulter). Compound IC50s were reported using GraphPad Prism software. Analytical method was non-linear regression, 4-parameter curve fit with bottom fit to validated PI3Kα inhibitor reference controls and no top fit (floating top).

Sequence of PI3Kα (P42336 whole entry): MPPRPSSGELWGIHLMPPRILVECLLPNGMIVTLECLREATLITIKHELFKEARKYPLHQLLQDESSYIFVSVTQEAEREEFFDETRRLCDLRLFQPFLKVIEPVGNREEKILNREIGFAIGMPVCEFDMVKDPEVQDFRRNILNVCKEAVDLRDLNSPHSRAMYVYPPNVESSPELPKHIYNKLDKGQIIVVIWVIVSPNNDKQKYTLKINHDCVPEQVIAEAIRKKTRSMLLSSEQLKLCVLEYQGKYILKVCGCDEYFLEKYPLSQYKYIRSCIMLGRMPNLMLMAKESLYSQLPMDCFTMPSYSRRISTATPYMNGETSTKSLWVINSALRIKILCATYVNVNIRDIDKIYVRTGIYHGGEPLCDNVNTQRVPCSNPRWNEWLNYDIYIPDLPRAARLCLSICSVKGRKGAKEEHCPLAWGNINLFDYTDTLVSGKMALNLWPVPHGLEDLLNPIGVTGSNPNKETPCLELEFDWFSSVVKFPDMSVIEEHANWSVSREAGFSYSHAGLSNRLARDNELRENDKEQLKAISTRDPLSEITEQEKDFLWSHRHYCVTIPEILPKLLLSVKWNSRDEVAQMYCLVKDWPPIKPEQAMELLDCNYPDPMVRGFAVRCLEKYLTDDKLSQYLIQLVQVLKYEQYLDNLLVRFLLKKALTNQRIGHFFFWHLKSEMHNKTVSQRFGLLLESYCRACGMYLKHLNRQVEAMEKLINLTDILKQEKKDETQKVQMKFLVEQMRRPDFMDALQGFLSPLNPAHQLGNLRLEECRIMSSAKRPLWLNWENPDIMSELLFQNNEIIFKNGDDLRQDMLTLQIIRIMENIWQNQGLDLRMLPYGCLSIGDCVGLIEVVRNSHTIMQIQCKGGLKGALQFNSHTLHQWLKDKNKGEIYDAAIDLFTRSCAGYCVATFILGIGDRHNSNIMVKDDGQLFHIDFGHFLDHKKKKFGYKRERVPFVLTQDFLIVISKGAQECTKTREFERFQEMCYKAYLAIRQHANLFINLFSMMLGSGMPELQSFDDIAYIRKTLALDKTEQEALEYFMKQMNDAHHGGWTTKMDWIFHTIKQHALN
Sequence of PI3Kα (P27986 whole entry partner): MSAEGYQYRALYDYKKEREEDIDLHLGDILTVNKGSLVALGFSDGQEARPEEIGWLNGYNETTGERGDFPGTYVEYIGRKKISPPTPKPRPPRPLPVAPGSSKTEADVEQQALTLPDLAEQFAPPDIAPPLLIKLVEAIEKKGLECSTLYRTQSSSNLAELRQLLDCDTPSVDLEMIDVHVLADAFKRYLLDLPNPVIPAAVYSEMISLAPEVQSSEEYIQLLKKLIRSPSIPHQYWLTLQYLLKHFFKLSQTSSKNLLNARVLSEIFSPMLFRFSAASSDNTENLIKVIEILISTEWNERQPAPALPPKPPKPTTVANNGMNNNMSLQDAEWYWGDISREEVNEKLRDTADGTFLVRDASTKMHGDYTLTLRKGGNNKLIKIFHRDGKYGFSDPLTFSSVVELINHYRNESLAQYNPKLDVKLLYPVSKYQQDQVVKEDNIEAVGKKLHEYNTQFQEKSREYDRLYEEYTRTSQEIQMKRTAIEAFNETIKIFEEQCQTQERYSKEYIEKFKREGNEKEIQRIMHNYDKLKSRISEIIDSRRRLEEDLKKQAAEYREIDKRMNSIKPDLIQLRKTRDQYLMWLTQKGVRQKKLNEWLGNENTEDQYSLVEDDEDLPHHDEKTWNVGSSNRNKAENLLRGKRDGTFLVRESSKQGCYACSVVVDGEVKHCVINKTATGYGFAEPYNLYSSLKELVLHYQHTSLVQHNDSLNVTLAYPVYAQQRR

Structure (SMILES) | PI3Ka IC50
CC(C)(C)OC(=O)N1CC(S(=O)(=O)c2cc(-c3cnc(N)cn3)cc(N3CCOCC3)c2)C1 [Compound 69, tert-butyl 3-((3-(5-aminopyrazin-2-yl)-5-morpholinophenyl)sulfonyl)azetidine-1-carboxylate] | 540 nM
Nc1cnc(-c2cc(N3CCOCC3)cc(S(=O)(=O)Cc3ccccc3)c2)cn1 [Compound 73, 5-(3-(benzylsulfonyl)-5-morpholinophenyl)pyrazin-2-amine] | 1500 nM
CC(C)(O)CNc1ccc(CS(=O)(=O)c2cc(-c3cnc(N)nc3)cc(N3CCOCC3)c2)cc1 [Compound 84, 1-((4-(((3-(2-aminopyrimidin-5-yl)-5-morpholinophenyl)sulfonyl)methyl)phenyl)amino)-2-methylpropan-2-ol] | 600 nM
Nc1ccc(-c2cc(N3CCOCC3)cc(S(=O)(=O)Cc3ccc(F)cc3F)c2)nc1 [Compound 98, -(3-((2,4-difluorobenzyl)sulfonyl)-5-morpholinophenyl)pyridin-3-amine] | 12000 nM
Cc1cc(N)nnc1-c1cc(N2CCOCC2)cc(S(=O)(=O)Cc2ccc(F)cc2F)c1 [Compound 99, 6-(3-((2,4-difluorobenzyl)sulfonyl)-5-morpholinophenyl)-5-methylpyridazin-3-amine] | 4300 nM
O=S(=O)(Cc1ccccc1)c1cc(-c2cnc(NC3CC3)nc2)cc(N2CCOCC2)c1 [Compound 104, 5-(3-(benzylsulfonyl)-5-morpholinophenyl)-N-cyclopropylpyrimidin-2-amine] | 1300 nM
Nc1ccc(-c2cc(N3CCOCC3)cc(S(=O)(=O)[C@@H]3CCOC3)c2)c(C(F)(F)F)n1 [Compound 105, (R)-5-(3-morpholino-5-((tetrahydrofuran-3-yl)sulfonyl)phenyl)-6-(trifluoromethyl)pyridin-2-amine] | 1700 nM
Nc1ncc(-c2cc(C3CCOc4ccccc43)cc(N3CCOCC3)n2)cn1 (stereo not shown) [Compound 141, 5-(4-(chroman-4-yl)-6-morpholinopyridin-2-yl)pyrimidin-2-amine] | 62 nM
Nc1ncc(-c2cc(S(=O)(=O)[C@H]3CCOC3)cc(N3CCOCC3)n2)cn1 [Compound 142a, (S)-5-(6-morpholino-4-((tetrahydrofuran-3-yl)sulfonyl)pyridin-2-yl)pyrimidin-2-amine] | 5.7 nM
Nc1cc(C(F)(F)F)c(-c2cc(S(=O)(=O)c3ccccc3)cc(N3CCOCC3)n2)cn1 [Compound 144, 6-morpholino-4-(phenylsulfonyl)-4′-(trifluoromethyl)-[2,3′-bipyridin]-6′-amine] | 390 nM
CC(=O)Nc1ncc(-c2cc(S(=O)(=O)c3ccccc3)cc(N3CCOCC3)n2)cn1 [Compound 145, N-(5-(6-morpholino-4-(phenylsulfonyl)pyridin-2-yl)pyrimidin-2-yl)acetamide] | 390 nM
O=S(=O)(c1ccccc1)c1cc(-c2cnc(NC3CC3)nc2)nc(N2CCOCC2)c1 [Compound 146, N-cyclopropyl-5-(6-morpholino-4-(phenylsulfonyl)pyridin-2-yl)pyrimidin-2-amine] | 370 nM
Nc1ncc(-c2cc(S(=O)(=O)C3COc4ccccc43)cc(N3CCOCC3)n2)cn1 (stereo not shown) [Compound 147, 5-(4-((2,3-dihydrobenzofuran-3-yl)sulfonyl)-6-morpholinopyridin-2-yl)pyrimidin-2-amine] | 7 nM
Nc1ncc(-c2cc(S(=O)(=O)C3CCOCC3)cc(N3CCOCC3)n2)cn1 [Compound 148, 5-(6-morpholino-4-((tetrahydro-2H-pyran-4-yl)sulfonyl)pyridin-2-yl)pyrimidin-2-amine] | 13 nM
Nc1ncc(-c2cc(C(=O)C3CCOC3)cc(N3CCOCC3)n2)cn1 (stereo not shown) [Compound 149, (2-(2-aminopyrimidin-5-yl)-6-morpholinopyridin-4-yl)(tetrahydrofuran-3-yl)methanone] | 14 nM
CC1CN(c2cc(S(=O)(=O)c3ccccc3)cc(-c3cnc(N)nc3)n2)CC(C)O1 (stereo not shown) [Compound 150, 5-(6-(2,6-dimethylmorpholino)-4-(phenylsulfonyl)pyridin-2-yl)pyrimidin-2-amine] | 450 nM
Nc1ncc(-c2cc(S(=O)(=O)c3ccccc3)cc(N3CC4CCC(C3)O4)n2)cn1 [Compound 151, 5-(6-(8-oxa-3-azabicyclo[3.2.1]octan-3-yl)-4-(phenylsulfonyl)pyridin-2-yl)pyrimidin-2-amine] | 830 nM

The next lines start with the values.

PI3Ka IC50 | Structure (SMILES)
870 nM | CC(C)N1CC(S(=O)(=O)c2cc(-c3cnc(N)nc3)cc(N3CCOCC3)c2)C1 [Compound 65, 5-(3-((1-isopropylazetidin-3-yl)sulfonyl)-5-morpholinophenyl)pyrimidin-2-amine]
1300 nM | Nc1ncc(-c2cc(N3CCOCC3)cc(S(=O)(=O)C3CN(C4CCOCC4)C3)c2)cn1 [Compound 66, 5-(3-morpholino-5-((1-(tetrahydro-2H-pyran-4-yl)azetidin-3-yl)sulfonyl)phenyl)pyrimidin-2-amine]
800 nM | CC(C)(C)OC(=O)N1CCC(N2CC(S(=O)(=O)c3cc(-c4cnc(N)nc4)cc(N4CCOCC4)c3)C2)CC1 [Compound 67, tert-butyl 4-(3-((3-(2-aminopyrimidin-5-yl)-5-morpholinophenyl)sulfonyl)azetidin-1-yl)piperidine-1-carboxylate]
1000 nM | Nc1cnc(-c2cc(N3CCOCC3)cc(S(=O)(=O)C3CCOC3)c2)cn1 (stereo not shown) [Compound 74, 5-(3-morpholino-5-((tetrahydrofuran-3-yl)sulfonyl)phenyl)pyrazin-2-amine]
660 nM | Nc1ncc(-c2cc(N3CCOCC3)cc(S(=O)(=O)C3CN(Cc4ccc(F)cc4)C3)c2)cn1 [Compound 80, 5-(3-((1-(4-fluorobenzyl)azetidin-3-yl)sulfonyl)-5-morpholinophenyl)pyrimidin-2-amine]
1000 nM | C[C@@H]1CC(S(=O)(=O)c2cc(-c3cnc(N)nc3)cc(N3CCOCC3)c2)C[C@H](C)O1 (stereo partly drawn) [Compound 85, 5-(3-(((2R,6S)-2,6-dimethyltetrahydro-2H-pyran-4-yl)sulfonyl)-5-morpholinophenyl)pyrimidin-2-amine]
580 nM | CC(C)(C)C(=O)N1CC(S(=O)(=O)c2cc(-c3cnc(N)nc3)cc(N3CCOCC3)c2)C1 [Compound 86, 1-(3-((3-(2-aminopyrimidin-5-yl)-5-morpholinophenyl)sulfonyl)azetidin-1-yl)-2,2-dimethylpropan-1-one]
2500 nM | CC(C)N1CCC(S(=O)(=O)c2cc(-c3cnc(N)nc3)cc(N3CCOCC3)c2)C1.Cl (stereo not shown) [Compound 89, 5-(3-((1-isopropylpyrrolidin-3-yl)sulfonyl)-5-morpholinophenyl)pyrimidin-2-amine hydrochloride]
7220 nM | CC(C)N1CCC(S(=O)(=O)c2cc(-c3cnc(N)nc3)cc(N3CCOCC3)c2)CC1 [Compound 90, 5-(3-((1-isopropylpiperidin-4-yl)sulfonyl)-5-morpholinophenyl)pyrimidin-2-amine]
840 nM | Cc1nc(N)ncc1-c1cc(N2CCOCC2)cc(S(=O)(=O)[C@@H]2CCOC2)c1 [Compound 121, (R)-4-methyl-5-(3-morpholino-5-((tetrahydrofuran-3-yl)sulfonyl)phenyl)pyrimidin-2-amine]
6.8 nM | Nc1ncc(-c2cc(S(=O)(=O)[C@@H]3CCOC3)cc(N3CCOCC3)n2)cn1 [Compound 142b, (R)-5-(6-morpholino-4-((tetrahydrofuran-3-yl)sulfonyl)pyridin-2-yl)pyrimidin-2-amine]
